Data published in patent US20240101528A1, “SUBSTITUTED PYRAZOLO PIPERIDINE CARBOXYLIC ACIDS” (BAYER AKTIENGESELLSCHAFT, priority 2020, published 2024).
Where a name gives a salt, the structure may show the parent alone.

How the values were obtained:
[1] = biological target: T1, recombinant guanylate cyclase reporter cell line (Rattus norvegicus, UniProt P20595); assay: Effect on a recombinant guanylate cyclase reporter cell line; format: cell-based; details: for MEC: minimum effective concentration; for EC50: half maximal effective concentration
T1 construct: expressed in transfected cells
T1 sequence (P20595 1-619): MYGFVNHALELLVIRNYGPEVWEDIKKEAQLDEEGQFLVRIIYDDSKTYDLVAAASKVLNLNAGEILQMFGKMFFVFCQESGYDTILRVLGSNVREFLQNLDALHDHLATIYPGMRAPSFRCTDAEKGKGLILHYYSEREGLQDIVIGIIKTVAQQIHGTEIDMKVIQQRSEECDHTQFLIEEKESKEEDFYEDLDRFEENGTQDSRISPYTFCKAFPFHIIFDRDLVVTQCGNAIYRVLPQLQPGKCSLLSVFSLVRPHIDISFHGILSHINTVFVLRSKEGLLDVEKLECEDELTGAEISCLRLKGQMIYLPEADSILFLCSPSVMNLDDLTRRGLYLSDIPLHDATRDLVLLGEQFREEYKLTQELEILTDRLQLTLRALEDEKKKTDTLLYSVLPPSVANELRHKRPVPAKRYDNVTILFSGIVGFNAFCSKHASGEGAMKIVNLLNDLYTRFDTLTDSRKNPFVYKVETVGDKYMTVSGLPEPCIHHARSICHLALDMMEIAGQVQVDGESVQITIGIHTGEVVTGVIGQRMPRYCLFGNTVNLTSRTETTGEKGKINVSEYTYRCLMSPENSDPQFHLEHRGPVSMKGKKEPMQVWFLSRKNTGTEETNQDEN
T1 sequence (P19686 1-690 partner): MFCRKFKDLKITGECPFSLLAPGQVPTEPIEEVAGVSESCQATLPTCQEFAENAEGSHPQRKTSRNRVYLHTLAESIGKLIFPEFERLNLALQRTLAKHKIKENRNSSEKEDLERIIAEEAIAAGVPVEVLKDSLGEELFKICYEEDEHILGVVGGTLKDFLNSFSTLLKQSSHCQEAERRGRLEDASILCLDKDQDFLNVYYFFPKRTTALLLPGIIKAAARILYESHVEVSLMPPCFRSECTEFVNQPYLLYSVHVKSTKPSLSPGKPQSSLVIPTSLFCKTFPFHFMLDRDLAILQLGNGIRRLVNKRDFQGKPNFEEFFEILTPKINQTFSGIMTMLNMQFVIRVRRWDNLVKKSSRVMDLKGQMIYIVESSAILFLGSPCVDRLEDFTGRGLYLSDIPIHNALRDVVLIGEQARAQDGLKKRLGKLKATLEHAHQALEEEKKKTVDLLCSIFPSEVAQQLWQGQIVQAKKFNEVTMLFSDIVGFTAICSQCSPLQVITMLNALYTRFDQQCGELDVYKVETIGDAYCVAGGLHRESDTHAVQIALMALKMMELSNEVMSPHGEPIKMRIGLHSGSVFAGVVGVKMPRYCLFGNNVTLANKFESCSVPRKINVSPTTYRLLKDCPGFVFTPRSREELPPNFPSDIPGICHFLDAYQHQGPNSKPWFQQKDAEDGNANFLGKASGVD
Description: B-1. Effect on a Recombinant Guanylate Cyclase Reporter Cell Line
The cellular activity of the compounds according to the invention was determined using a recombinant guanylate cyclase reporter cell line, as described in F. Wunder et al., Anal. Biochem. 339, 104-112 (2005).

[2] = Pharmacokinetic parameters following intravenous administration in rats; format: in vivo, male Wistar rats; details: intravenous administration
Description: (§1) B-5. Determination of Pharmacokinetic Parameters Following Intravenous and Oral Administration
(§2) The pharmacokinetic parameters of the compounds according to the invention were determined in male Wistar rats and/or in female beagles and/or in cynomolgus monkeys and/or in male CD-1 mice. Intravenous administration in the case of mice and rats was carried out by means of a species-specific plasma/DMSO formulation, and in the case of dogs and monkeys by means of a water/PEG400/ethanol formulation. In all species, oral administration of the dissolved substance was performed via gavage, based on a water/PEG400/ethanol formulation.
(§3) An internal standard (which may also be a chemically unrelated substance) was added to the samples of the compounds of the invention, calibration samples and qualifiers, and there followed protein precipitation by means of acetonitrile in excess. Addition of a buffer solution matched to the LC conditions, and subsequent vortexing, was followed by centrifugation at 1000 g. The supernatant was analysed by LC-MS/MS using C18 reversed-phase columns and variable mobile phase mixtures. The substances were quantified via the peak heights or areas from extracted ion chromatograms of specific selected ion monitoring experiments.
(§4) The plasma concentration/time plots determined were used to calculate the pharmacokinetic parameters such as AUC, Cmax, t1/2 (terminal half-life), F (bioavailability), MRT (mean residence time) and CL (clearance), by means of a validated pharmacokinetic calculation program.
(§5) Since the substance quantification was performed in plasma, it was necessary to determine the blood/plasma distribution of the substance in order to be able to adjust the pharmacokinetic parameters correspondingly. For this purpose, a defined amount of substance was incubated in K3 EDTA whole blood of the species in question in a rocking roller mixer for 20 min. After centrifugation at 1000 g, the plasma concentration was measured (by means of LC-MS/MS; see above) and determined by calculating the ratio of the Cblood/Cplasma value.

[3] = Pharmacokinetic parameters following oral administration in rats; format: in vivo, male Wistar rats; details: for F: bioavailability
Description: as §1, §2, §3, §4, §5

Row | Structure (SMILES) | MEC [1] [nM] | AUCnorm [2] [kg·h/L] | AUCnorm [3] [kg·h/L] | F [3] [%] | MRT [3] [h] | EC50 [1] [nM]
1 | O=C(O)c1cnn(C2CCCN(c3cc(Cl)ccc3-c3ccc(N4CCN(CC5CC5)CC4)cc3)C2)c1C(F)F (single isomer, unassigned; enantiomer 2) [Example 11, 1-(1-{4-Chloro-4′-[4-(cyclopropylmethyl)piperazin-1-yl] [biphenyl]-2-yl}piperidin-3-yl)-5-(difluoromethyl)-1H-pyrazole-4-carboxylic acid hydrochloride (Enantiomer 2)] | <0.3 | 1.23 | 0.70 | 58.2 |  | 
2 | O=C(O)c1cnn(-c2cccc(-c3cc(Cl)ccc3-c3ccc(N4CCN(CC5CC5)CC4)cc3)n2)c1C(F)(F)F [174 (WO2012/058132), reference compound] |  | 0.77 | 0.63 | 81.8 | 8.41 | 
3 | O=C(O)c1cnn(C2CCCN(c3cc(Cl)ccc3-c3ccc(N4CCCC4)cc3)C2)c1C(F)F (single isomer, unassigned; enantiomer 2) [Example 45, 1-{1-[4-Chloro-4′-(pyrrolidin-1-yl)[biphenyl]-2-yl]piperidin-3-yl}-5-(difluoromethyl)-1H-pyrazole-4-carboxylic acid (Enantiomer 2)] | 3.0 |  |  |  |  | 42.5
4 | O=C(O)c1cnn(C2CCCN(c3cc(Cl)ccc3-c3ccc(N4CCN(CC(F)(F)F)CC4)nc3)C2)c1C(F)F (single isomer, unassigned; enantiomer 1) [Example 64, 1-[1-(5-Chloro-2-{6-[4-(2,2,2-trifluoroethyl)piperazin-1-yl]pyridin-3-yl}phenyl)piperidin-3-yl]-5-(difluoromethyl)-1H-pyrazole-4-carboxylic (Enantiomer 1)] | 1.0 |  |  |  |  | 1.9
5 | CN1CCN(c2ccc(-c3ccc(Cl)cc3N3CCCC(n4ncc(C(=O)O)c4C(F)F)C3)cc2)CC1 (single isomer, unassigned; enantiomer 1) [Example 1, 1-{1-[4-Chloro-4′-(4-methylpiperazin-1-yl)[biphenyl]-2-yl]piperidin-3-yl}-5-(difluoromethyl)-1H-pyrazole-4-carboxylic acid hydrochloride (Enantiomer 1)] | 10.0 |  |  |  |  | 96.5
6 | O=C(O)c1cnn(C2CCCN(c3cc(Cl)ccc3-c3ccc(N4CCN(CC(F)(F)F)CC4)nc3)C2)c1C(F)F (single isomer, unassigned; enantiomer 2) [Example 65, 1-[1-(5-Chloro-2-{6-[4-(2,2,2-trifluoroethyl)piperazin-1-yl]pyridin-3-yl}phenyl)piperidin-3-yl]-5-(difluoromethyl)-1H-pyrazole-4-carboxylic acid hydrochloride (Enantiomer 2)] | 1.0 |  |  |  |  | 6.9
7 | O=C(O)c1cnn(C2CCCN(c3cc(Cl)ccc3-c3ccc(N4CCN(C5CC5)CC4)cc3)C2)c1C(F)F (single isomer, unassigned; enantiomer 1) [Example 8, 1-{1-[4-Chloro-4′-(4-cyclopropylpiperazin-1-yl)[biphenyl]-2-yl]piperidin-3-yl}-5-(difluoromethyl)-1H-pyrazole-4-carboxylic acid hydrochloride (Enantiomer 1)] | 3.0 |  |  |  |  | 24.5
8 | O=C(O)c1cnn(C2CCCN(c3cc(Cl)ccc3-c3ccc(N4CCN(CC5CC(F)(F)C5)CC4)cc3)C2)c1C(F)F (single isomer, unassigned; enantiomer 1) [Example 15, 1-[1-(4-Chloro-4′-{4-[(3,3-difluorocyclobutyl)methyl]piperazin-1-yl}[biphenyl]-2-yl)piperidin-3-yl]-5-(difluoromethyl)-1H-pyrazole-4-carboxylic acid hydrochloride (Enantiomer 1)] | 0.6 |  |  |  |  | 6.7
9 | O=C(O)c1cnn(C2CCCN(c3cc(Cl)ccc3-c3ccc(N4CCN(CC5CC5(F)F)CC4)cc3)C2)c1C(F)F (single isomer, unassigned; diastereomer 1) [Example 28, 1-{1-[4-Chloro-4′-(4-{[2,2-difluorocyclopropyl]methyl}piperazin-1-yl)[biphenyl]-2-yl]piperidin-3-yl}-5-(difluoromethyl)-1H-pyrazole-4-carboxylic acid hydrochloride (Diastereomer 1)] | 0.3 |  |  |  |  | 0.8
10 | CC(C)CN1CCN(c2ncc(-c3ccc(Cl)cc3N3CCCC(n4ncc(C(=O)O)c4C(F)F)C3)cn2)CC1 (single isomer, unassigned; enantiomer 2) [Example 70, 1-(1-{5-Chloro-2-[2-(4-isobutylpiperazin-1-yl)pyrimidin-5-yl]phenyl}piperidin-3-yl)-5-(difluoromethyl)-1H-pyrazole-4-carboxylic acid hydrochloride (Enantiomer 2)] | 3.0 |  |  |  |  | 21.5
11 | O=C(O)c1cnn(C2CCCN(c3cc(Cl)ccc3-c3ccc(N4CCN(CC5CC5F)CC4)cc3)C2)c1C(F)F (single isomer, unassigned; diastereomer 3) [Example 33, 1-[1-[5-Chloro-2-[4-[4-[(trans-2-fluorocyclopropyl)methyl]piperazin-1-yl]phenyl]phenyl]-3-piperidyl]-5-(difluoromethyl)pyrazole-4-carboxylic acid hydrochloride (Diastereomer 3)] | 0.3 |  |  |  |  | 4.1
12 | O=C(O)c1cnn(C2CCCN(c3cc(Cl)ccc3-c3ccc(N4CCN(CCC(F)F)CC4)cc3)C2)c1C(F)F (single isomer, unassigned; enantiomer 2) [Example 22, 1-(1-{4-Chloro-4′-[4-(3,3-difluoropropyl)piperazin-1-yl][biphenyl]-2-yl}piperidin-3-yl)-5-(difluoromethyl)-1H-pyrazole-4-carboxylic acid hydrochloride (Enantiomer 2)] | <0.3 |  |  |  |  | 1
13 | O=C(O)c1cnn(C2CCCN(c3cc(Cl)ccc3-c3ccc(N4CCN(CC5(F)CCC5)CC4)cc3)C2)c1C(F)F (single isomer, unassigned; enantiomer 2) [Example 16, 1-[1-(4-Chloro-4′-{4-[(1-fluorocyclobutyl)methyl]piperazin-1-yl}[biphenyl]-2-yl)piperidin-3-yl]-5-(difluoromethyl)-1H-pyrazole-4-carboxylic acid hydrochloride (Enantiomer 2)] | 0.3 |  |  |  |  | 2.6
14 | O=C(O)c1cnn(C2CCCN(c3cc(Cl)ccc3-c3ccc(N4CCN(CC5CCC5)CC4)cc3)C2)c1C(F)F (single isomer, unassigned; enantiomer 2) [Example 14, 1-[1-{4-Chloro-4′-[4-(cyclobutylmethyl)piperazin-1-yl][biphenyl]-2-yl}piperidin-3-yl]-5-(difluoromethyl)-1H-pyrazole-4-carboxylic acid hydrochloride (Enantiomer 2)] | 1.0 |  |  |  |  | 13.2
